These are literature values, as cited in US20150297556A1 (priority 2014, published 2015).

Turning to “(1S,5S)-2,6,6-Trimethylbicyclo[3.1.1]hept-2-ene ((−)-α-Pinene)”, the human pulmonary uptake is given as 60%.
